From patent publication US10765114B2, “4-amino-6-(pyridyl and 2-substitutedphenyl)-picolinates and 6-amino-2-(pyridyl and 2-substitutedphenyl)-pyrimidine-4-carboxylates and their use as herbicides” (Dow AgroSciences LLC, priority 2013, dated 2020)
Read-outs that look alike come from different tables or passages of the source.

Columns and labels:
[1] = tested on: Key Broadleaf Weed and Crop Species; experiment: Post-Emergent Test II (Table 5); assay type: in vivo; details: post-emergence, 336 h; for pest or weed control at 70 g/ha: application rate 70 (kg ai/ha; footnote: g ai/ha); for pest or weed control at 140 g/ha: application rate 140 (kg ai/ha; footnote: g ai/ha)
Outline: (§1)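 Visual injury ratings (0 = no injury, 100 = complete kill) were taken 14 days after treatment relative to untreated plants. Seedlings at the first or second true leaf stage received an overhead spray at 187 L/ha, and solvent-blank sprayed plants served as controls.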

[2] = tested on: Key Grass and Sedge Weeds as well as Grass Crops; experiment: Post-Emergent Test II (Table 6); assay type: in vivo; details: post-emergence, 336 h, 14 days after application; for pest or weed control at 70 g/ha: 70 g ai/ha; for pest or weed control at 140 g/ha: 140 g ai/ha
Outline: as §1

[3] = Abutilon theophrasti, ABUTH: velvetleaf (Abutilon theophrasti), read-out: Visual Growth Reduction (%) 14 Days After Application ABUTH
[4] = Amaranthus retroflexus, AMARE: redroot pigweed (Amaranthus retroflexus), read-out: Visual Growth Reduction (%) 14 Days After Application AMARE
[5] = Brassica napus, BRSSS: oilseed rape, canola (Brassica napus), read-out: Visual Growth Reduction (%) 14 Days After Application BRSSS
[6] = Chenopodium album, CHEAL: lambsquarters (Chenopodium album), read-out: Visual Growth Reduction (%) 14 Days After Application CHEAL
[7] = Euphorbia heterophylla, EPHHL: wild poinsettia (Euphorbia heterophylla), read-out: Visual Growth Reduction (%) 14 Days After Application EPHHL
[8] = Helianthus annuus, HELAN: sunflower (Helianthus annuus), read-out: Visual Growth Reduction (%) 14 Days After Application HELAN
[9] = Viola tricolor, VIOTR: wild pansy (Viola tricolor), read-out: Visual Growth Reduction (%) 14 Days After Application VIOTR
[10] = CYPSS, read-out: Visual Growth Reduction (%) 14 Days After Application CYPSS
[11] = DIGSA: crabgrass (Digitaria sanguinalis), read-out: Visual Growth Reduction (%) 14 Days After Application DIGSA
[12] = ECHSS, read-out: Visual Growth Reduction (%) 14 Days After Application ECHSS
[13] = ORYSS (crop), read-out: Visual Growth Reduction (%) 14 Days After Application ORYSS
[14] = SETFA: giant foxtail (Setaria faberi), read-out: Visual Growth Reduction (%) 14 Days After Application SETFA
[15] = SORVU: grain sorghum (Sorghum vulgare), read-out: Visual Growth Reduction (%) 14 Days After Application SORVU
[16] = TRZSS (crop), read-out: Visual Growth Reduction (%) 14 Days After Application TRZSS
[17] = ZEAMX: maize, corn (Zea mays), read-out: Visual Growth Reduction (%) 14 Days After Application ZEAMX

| Compound | pest or weed control at 70 g/ha [1, 3] | pest or weed control at 140 g/ha [1, 3] | pest or weed control at 70 g/ha [1, 4] | pest or weed control at 140 g/ha [1, 4] | pest or weed control at 70 g/ha [1, 5] | pest or weed control at 140 g/ha [1, 5] | pest or weed control at 70 g/ha [1, 6] | pest or weed control at 140 g/ha [1, 6] | pest or weed control at 70 g/ha [1, 7] | pest or weed control at 140 g/ha [1, 7] | pest or weed control at 70 g/ha [1, 8] | pest or weed control at 140 g/ha [1, 8] | pest or weed control at 70 g/ha [1, 9] | pest or weed control at 140 g/ha [1, 9] | pest or weed control at 70 g/ha [2, 10] | pest or weed control at 140 g/ha [2, 10] | pest or weed control at 70 g/ha [2, 11] | pest or weed control at 140 g/ha [2, 11] | pest or weed control at 70 g/ha [2, 12] | pest or weed control at 140 g/ha [2, 12] | other results |
| --- | --- | --- | --- | --- | --- | --- | --- | --- | --- | --- | --- | --- | --- | --- | --- | --- | --- | --- | --- | --- | --- |
| COC(=O)c1nc(-c2ccc(Cl)nc2F)cc(N)c1Cl [Compound 17, methyl 4-amino-5,6′-dichloro-2′-fluoro-[2,3′-bipyridine]-6-carboxylate] | 95 to 100% | 95 to 100% | 95 to 100% | 95 to 100% | 0 to 29% | 30 to 44% | 95 to 100% | 95 to 100% | 0 to 29% | 45 to 59% | 60 to 74% | 75 to 84% | 60 to 74% | 60 to 74% | 60 to 74% | 75 to 84% | 0 to 29% | 0 to 29% | 60 to 74% | 85 to 94% | pest or weed control at 70 g/ha [2, 13]: 0 to 29%; pest or weed control at 140 g/ha [2, 13]: 0 to 29%; pest or weed control at 70 g/ha [2, 14]: 0 to 29%; pest or weed control at 140 g/ha [2, 14]: 0 to 29%; pest or weed control at 70 g/ha [2, 15]: 0 to 29%; pest or weed control at 140 g/ha [2, 15]: 30 to 44%; pest or weed control at 70 g/ha [2, 16]: 0 to 29%; pest or weed control at 140 g/ha [2, 16]: 0 to 29%; pest or weed control at 70 g/ha [2, 17]: 0 to 29%; pest or weed control at 140 g/ha [2, 17]: 30 to 44% |
| Nc1cc(-c2ccc(Cl)c(F)c2CO)nc(C(=O)O)c1Cl [Compound 11, 4-Amino-3-chloro-6-(4-chloro-3-fluoro-2-(hydroxymethyl)phenyl)picolinic acid] | 0 to 29% | 0 to 29% | 0 to 29% | 0 to 29% | 0 to 29% | 0 to 29% | 0 to 29% | 75 to 84% | 0 to 29% | 0 to 29% | 0 to 29% | 0 to 29% | 0 to 29% | 0 to 29% | 0 to 29% | 0 to 29% | 0 to 29% | 0 to 29% | 0 to 29% | 0 to 29% | pest or weed control at 70 g/ha [2, 13]: 0 to 29%; pest or weed control at 140 g/ha [2, 13]: 0 to 29%; pest or weed control at 70 g/ha [2, 14]: 0 to 29%; pest or weed control at 140 g/ha [2, 14]: 0 to 29%; pest or weed control at 70 g/ha [2, 15]: 0 to 29%; pest or weed control at 140 g/ha [2, 15]: 0 to 29%; pest or weed control at 70 g/ha [2, 16]: 0 to 29%; pest or weed control at 140 g/ha [2, 16]: 0 to 29%; pest or weed control at 70 g/ha [2, 17]: 0 to 29%; pest or weed control at 140 g/ha [2, 17]: 0 to 29% |
| COC(=O)c1nc(-c2ccc(Cl)c(F)c2OC)cc(N)c1Cl [Compound 20] | 95 to 100% | 95 to 100% | 95 to 100% | 95 to 100% | 95 to 100% | 95 to 100% | 95 to 100% | 95 to 100% | 0 to 29% | 0 to 29% | 85 to 94% | 95 to 100% | 95 to 100% | 95 to 100% | 30 to 44% | 45 to 59% | 0 to 29% | 45 to 59% | 60 to 74% | 75 to 84% | pest or weed control at 70 g/ha [2, 13]: 0 to 29%; pest or weed control at 140 g/ha [2, 13]: 0 to 29%; pest or weed control at 70 g/ha [2, 14]: 30 to 44%; pest or weed control at 140 g/ha [2, 14]: 60 to 74%; pest or weed control at 70 g/ha [2, 15]: 0 to 29%; pest or weed control at 140 g/ha [2, 15]: 30 to 44%; pest or weed control at 70 g/ha [2, 16]: 0 to 29%; pest or weed control at 140 g/ha [2, 16]: 30 to 44%; pest or weed control at 70 g/ha [2, 17]: 85 to 94%; pest or weed control at 140 g/ha [2, 17]: 85 to 94% |
| COC(=O)c1nc(-c2ccc(Cl)c(F)c2CF)cc(N)c1Cl [Compound 78, methyl 4-amino-3-chloro-6-(4-chloro-3-fluoro-2-(fluoromethyl)phenyl)picolinate] | 95 to 100% | 95 to 100% | 95 to 100% | 95 to 100% | 95 to 100% | 95 to 100% | 95 to 100% | 95 to 100% | 0 to 29% | 0 to 29% | 85 to 94% | 85 to 94% | 0 to 29% | 0 to 29% | 45 to 59% | 45 to 59% | 0 to 29% | 0 to 29% | 0 to 29% | 0 to 29% | pest or weed control at 70 g/ha [2, 13]: 0 to 29%; pest or weed control at 140 g/ha [2, 13]: 0 to 29%; pest or weed control at 70 g/ha [2, 14]: 0 to 29%; pest or weed control at 140 g/ha [2, 14]: 0 to 29%; pest or weed control at 70 g/ha [2, 15]: 0 to 29%; pest or weed control at 140 g/ha [2, 15]: 0 to 29%; pest or weed control at 70 g/ha [2, 16]: 0 to 29%; pest or weed control at 140 g/ha [2, 16]: 0 to 29%; pest or weed control at 70 g/ha [2, 17]: 0 to 29%; pest or weed control at 140 g/ha [2, 17]: 0 to 29% |
